These results are taken from US20050148514A1, “Method and composition for treatment of angiogenesis” (priority 2003, published 2005).

Holding throughout (assay type): cell-based
In assay [1] the test system is MMP-9. As to the kind of experiment: Gelatin zymography of culture media of MatLyLu tumor cells. The conditions noted are these: 50 ug/ml collagen type-I, 500 ug/ml and 1 mg/ml, 72 hrs, serum free. Here is the method: Zymography. Zymography is a technique generally used to analyze the activity of matrix metalloproteinases (MMPs) in biological samples. It involves the electrophoretic separation of proteins under denaturing (Sodium Dodecyl Sulfate (SDS)) but non-reducing conditions through a polyacrylamide gel containing gelatin (for example, 10% gel containing 1 mg/ml gelatin for MMP-9 and MMP-2 assays). The resolved proteins are re-natured by exchanging SDS with a non-ionic detergent such as Triton X-100 and the gel is incubated in an incubation buffer for activation of MMP-2 and MMP-9 (for example at 37° C. for 18 hrs). The gel is stained with Coomassie blue and the MMP-2 and MMP-9 bands may be visualized as clear bands against a blue background (i.e., the MMPs degrade the gelatin and are visualized as clear bands; pro MMP-2 is 68 kDa and pro-MMP-9 is 92 kDa). These bands can be quantified using densitometry.
In the experiment presented in FIG. 1, 2.5×10^5 MatLyLu tumor cells (American Type Culture Collection No.: JHU-5)) were seeded in T-25 flasks containing RPMI with 10% fetal bovine serum (FBS). […]
The media were collected after 72 hours of exposure to the PCK3145 derivative and subjected to gelatin zymography. […] The band intensities were determined using the Image Quant software (version 5.0) from molecular Dynamics. […]

In assay [2] the target is T1, VEGFR-2 (Homo sapiens, UniProt P35968).
T1 construct: host or cells: HUVEC
T1 sequence (P35968 20-1356): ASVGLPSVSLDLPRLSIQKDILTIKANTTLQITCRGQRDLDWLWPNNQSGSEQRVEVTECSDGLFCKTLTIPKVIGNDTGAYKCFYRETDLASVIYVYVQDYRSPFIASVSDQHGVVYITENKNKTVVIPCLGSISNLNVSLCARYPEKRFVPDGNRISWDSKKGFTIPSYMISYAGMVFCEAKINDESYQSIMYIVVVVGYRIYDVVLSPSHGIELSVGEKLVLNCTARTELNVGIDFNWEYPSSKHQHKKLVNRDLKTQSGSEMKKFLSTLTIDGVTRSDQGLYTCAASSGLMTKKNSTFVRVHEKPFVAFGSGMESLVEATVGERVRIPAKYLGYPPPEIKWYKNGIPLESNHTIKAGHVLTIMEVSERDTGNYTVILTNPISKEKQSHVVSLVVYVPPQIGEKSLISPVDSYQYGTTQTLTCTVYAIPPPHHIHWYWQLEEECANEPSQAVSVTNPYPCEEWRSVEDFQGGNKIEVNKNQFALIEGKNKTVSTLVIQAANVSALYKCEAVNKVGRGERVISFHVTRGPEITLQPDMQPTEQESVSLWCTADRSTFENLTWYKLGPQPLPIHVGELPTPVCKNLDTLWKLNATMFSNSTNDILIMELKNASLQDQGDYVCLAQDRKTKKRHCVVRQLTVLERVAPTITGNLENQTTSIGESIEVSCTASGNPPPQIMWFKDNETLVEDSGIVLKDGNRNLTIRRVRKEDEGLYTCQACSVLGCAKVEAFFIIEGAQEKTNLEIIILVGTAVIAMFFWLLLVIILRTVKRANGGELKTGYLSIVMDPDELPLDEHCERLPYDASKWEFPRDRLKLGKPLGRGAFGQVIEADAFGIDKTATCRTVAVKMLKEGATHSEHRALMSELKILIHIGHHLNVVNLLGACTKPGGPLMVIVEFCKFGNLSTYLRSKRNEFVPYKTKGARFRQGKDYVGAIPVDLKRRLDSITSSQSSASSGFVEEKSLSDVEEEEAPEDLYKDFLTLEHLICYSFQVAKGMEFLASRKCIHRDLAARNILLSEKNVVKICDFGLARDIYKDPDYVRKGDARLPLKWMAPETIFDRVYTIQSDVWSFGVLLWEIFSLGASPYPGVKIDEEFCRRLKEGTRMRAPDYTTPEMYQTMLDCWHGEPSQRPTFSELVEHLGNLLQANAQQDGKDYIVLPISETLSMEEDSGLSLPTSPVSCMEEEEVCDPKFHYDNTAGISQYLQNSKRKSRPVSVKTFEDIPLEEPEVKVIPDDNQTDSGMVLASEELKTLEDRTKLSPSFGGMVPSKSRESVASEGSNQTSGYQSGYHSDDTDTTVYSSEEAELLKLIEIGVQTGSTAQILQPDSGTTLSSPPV
As to the kind of experiment: VEGF-induced VEGFR-2 phosphorylation in HUVEC (immunoprecipitation, western blot). As to the method: (§1) Cell culture. Human umbilical vein endothelial cells (HUVEC) and pulmonary aortic smooth muscle cells (PASMC) were obtained from Clonetics and maintained in endothelial cell basal medium-2, (EBM-2; Clonetics) and smooth muscle medium-2 (SmGM-2; Clonetics), respectively. Cells were cultured at 37° C. under a humidified atmosphere containing 5% CO2. For experimental purposes, cells were plated in 8 100-mm plastic dishes at 5,000 cells/cm^2 and were grown to confluence before overnight serum starvation. Cells were treated with vehicle or with a PCK3145 derivative diluted in 0.1 N NaOH, and stimulated with 50 ng/ml VEGF, PDGF or with 1 μM S1P.
(§2) Immunoprecipitation and immunoblotting procedures. After treatment, cells were washed once with phosphate-buffered saline (PBS) containing 1 mM sodium orthovanadate and were incubated in the same medium for 1 h at 4° C. The cells were solubilized on ice in lysis buffer (150 mM NaCl, 10 mM Tris-HCl, pH 7.4, 1 mM EDTA, 1 mM EGTA, 0.5% Nonidet P-40, 1% Triton X-100) containing 1 mM sodium orthovanadate. The cells were then scraped from the culture dishes and the resulting lysates were clarified by centrifugation at 10,000 g for 10 min. Protein concentrations were determined using the micro bicinchoninic acid method. For immunoprecipitation studies, lysates were clarified by a 1 h incubation at 4° C. with a mixture of Protein A/Protein G Sepharose beads. After removal of the Sepharose beads by low-speed centrifugation, identical amounts of protein (200 μg) from each sample were transferred to fresh tubes and incubated in lysis buffer overnight at 4° C. in the presence of 2 μg/ml of specific antibodies. […]
The multifunctionality of VEGF at the cellular level results from its ability to initiate a diverse, complex and integrated network of signaling pathways via its major receptor, VEGFR-2. […] After each treatment, equal amounts of protein were immunoprecipitated with anti-VEGFR-2 polyclonal antibodies and analysed by Western blotting.
(In general: A western blot detects proteins with antibodies after separation by electrophoresis.)

Assay [3] concerns ERK. The assay can be described thus: PDGF-induced ERK phosphorylation in PASMC. As to conditions: treatment as for HUVEC. As to the method:
as §1
as §2, with “beads.” for “beads. After removal of the Sepharose beads by low-speed centrifugation, identical amounts of protein (200 μg) from each sample were transferred to fresh tubes and incubated in lysis buffer overnight at 4° C. in the presence of 2 μg/ml of specific antibodies.”

Assay [4] has as its system MAPK/JNK pathway (SRE). As to the kind of experiment: SEAP gene-reporter assay in U-87 glioma cells, SRE element. The conditions noted are these: alkaline phosphatase activity in extracellular media. Here is the method: In order to investigate the potential intracellular pathways triggered by the PCK3145 derivative, a gene-reporter assay using the SEAP (Secreted Alkaline Phosphatase) Mercury Profiling Kit (CLONTECH) was performed in glioma cells (U-87). This assay enables the monitoring of transcription factors that are triggered by a particular experimental condition by assaying the alkaline phosphatase activity in the extracellular media. […] The induction of the MAPK pathway by the PCK3145 derivative is further confirmed by the rapid and transient induction of ERK phosphorylation between 5-10 minutes (FIG. 8B) and is shown to be dose-dependent (FIG. 8C). Finally, the effects of the PCK3145 derivative were also compared to those of a scrambled peptide.
Background: In a reporter assay the amount or activity of a reporter protein is the signal.

Entries after “also recorded” stand apart in the source; their conditions may differ. Where no end group is shown, it is not given here.

In the case of “EWQTDNCETCTCYET (cysteine pairing not given here)”, the “MMP-9 secreted in the cell culture media, zymography” value in assay [1] is reported as “dose-dependent reduction”. Also, the “dose dependence of inhibition of VEGF-induced VEGFR-2 phosphorylation” value in assay [2] (HUVEC) is recorded as “dose-dependent”. The “phosphorylation of VEGFR-2 induced by VEGF” value in assay [2] (serum-starved HUVEC, 300 μg/ml, 24 h) is recorded as “inhibited”. Further, the “PDGF-induced ERK phosphorylation” value in assay [3] is on record as “inhibition”. The “SEAP reporter, MAPK/JNK pathway (SRE)” value in assay [4] is reported as “triggers significantly; also recorded: extremely strong”.
